According to ChEMBL document CHEMBL1921768, “Identification of novel CYP2A6 inhibitors by virtual screening” (Bioorg Med Chem, 2011):

Columns and labels:
Type in all cases: ADME, Microsome
[1] = biological target: T1, Cytochrome P450 2A6 (Homo sapiens, UniProt P11509); assay: Inhibition of CYP2A6 in human liver microsomes assessed as inhibition of coumarin 7-hydroxylation after 10 mins by plate reader
T1 sequence (P11509 whole entry): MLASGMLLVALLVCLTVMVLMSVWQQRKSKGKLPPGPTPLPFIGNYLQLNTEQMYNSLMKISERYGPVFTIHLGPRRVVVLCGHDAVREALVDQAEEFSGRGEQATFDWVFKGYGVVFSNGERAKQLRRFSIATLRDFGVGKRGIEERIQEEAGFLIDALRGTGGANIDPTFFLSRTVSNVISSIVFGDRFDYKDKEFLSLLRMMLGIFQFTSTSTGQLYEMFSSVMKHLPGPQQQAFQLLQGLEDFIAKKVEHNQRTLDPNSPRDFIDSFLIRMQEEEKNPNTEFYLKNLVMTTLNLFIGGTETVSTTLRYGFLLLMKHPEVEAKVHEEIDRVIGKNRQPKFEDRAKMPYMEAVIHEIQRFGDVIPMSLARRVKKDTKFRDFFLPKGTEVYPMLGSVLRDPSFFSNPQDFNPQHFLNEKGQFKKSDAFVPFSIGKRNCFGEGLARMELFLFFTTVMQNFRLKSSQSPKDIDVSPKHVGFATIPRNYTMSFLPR

[2] = biological target: T1, Cytochrome P450 2A6; assay: Inhibition of CYP2A6 in human liver microsomes assessed as inhibition of coumarin 7-hydroxylation after 30 mins preincubation by plate reader
[3] = biological target: T1, Cytochrome P450 2A6; assay: Irreversible inhibition of CYP2A6 in human liver microsomes assessed as coumarin 7-hydroxylation activity in presence of NADPH; conditions: TDE = time-dependent effect
[4] = biological target: T1, Cytochrome P450 2A6; assay: Irreversible inhibition of CYP2A6 in human liver microsomes assessed as coumarin 7-hydroxylation activity after 1 to 5 mins in presence of NADPH
[5] = biological target: T2, CYP2A6 (Homo sapiens, UniProt P11509); assay: (§1) Irreversible inhibition of CYP2A6 in human liver microsomes assessed as coumarin 7-hydroxylation activity by double reciprocal plot analysis in presence of NADPH; conditions: human, liver microsomes, probe coumarin (7-hydroxylation)
T2 sequence (P11509 whole entry): T1 sequence (P11509 whole entry)

[6] = biological target: T1, Cytochrome P450 2A6; assay: as §1

| SMILES | IC50 [1] [µM] | also measured |
| --- | --- | --- |
| N#CCSc1nnc(N)s1 | > 100 | – |
| O=Cc1ccc(-c2cccs2)cc1 | > 100 | – |
| Brc1cccc2[nH]ccc12 | > 100 | – |
| N#Cc1ccc(C=O)cc1 | > 100 | – |
| N#Cc1c(Cl)cccc1OCC(F)(F)F | > 100 | – |

Continued, in another order:

| IC50 [1] [µM] | SMILES | also measured |
| --- | --- | --- |
| 0.1 | NCc1cc2ccccc2s1 | – |
| 1.5 | NCc1csc2ccccc12 | IC50 [2]: 0.2 µM |
| 1.7 | NCc1ccc2sccc2c1 | IC50 [2]: 0.6 µM |
| > 100 | O=C(O)c1cc2ccccc2s1 | – |
| 6.4 | Brc1ccc2[nH]ccc2c1 | – |
| 1.6 | O=Cc1csc2ccccc12 | inhibition (INH) [3]: tde; inhibition (INH) [4]: Dose-dependent effect; kinact [5]: 0.006 s⁻¹; Ki [6]: 29 µM; IC50 [2]: 0.05 µM |
